Test results published in the NIST ThermoML archive (doi:10.1021/acs.jced.9b00311).

Assay: xn = mol fraction of the nth substance listed
Conditions: 313.15 K, Liquid; for speed of sound: Frequency=3 MHz, Pulse-echo method; for mass density: Vibrating tube method

CCCCCCCCCCCC [dodecane] + O=C=O
Conditions | mass density [kg/m3] | speed of sound [m/s]
10000 kPa, x2 = 0 | 741.6 | 1281.7
10000 kPa, x2 = 0.2032 | – | 1209.7
10000 kPa, x2 = 0.205 | 748.8 | –
10000 kPa, x2 = 0.3989 | – | 1114.6
10000 kPa, x2 = 0.4 | 758.7 | –
10000 kPa, x2 = 0.6007 | – | 969.6
10000 kPa, x2 = 0.6008 | 773.3 | –
10000 kPa, x2 = 0.7497 | 786.6 | –
10000 kPa, x2 = 0.7498 | – | 793.2
10000 kPa, x2 = 0.8528 | – | 630
10000 kPa, x2 = 0.853 | 790.9 | –
10000 kPa, x2 = 0.9348 | 771.4 | –
10000 kPa, x2 = 0.9771 | 721.2 | –
10000 kPa, x2 = 0.9877 | 689.4 | –
20000 kPa, x2 = 0 | 748.5 | 1337.9
20000 kPa, x2 = 0.2032 | – | 1269.6
20000 kPa, x2 = 0.205 | 756.5 | –
20000 kPa, x2 = 0.3989 | – | 1180.3
20000 kPa, x2 = 0.4 | 768.1 | –
20000 kPa, x2 = 0.6007 | – | 1046.4
20000 kPa, x2 = 0.6008 | 786.1 | –
20000 kPa, x2 = 0.7497 | 806.5 | –
20000 kPa, x2 = 0.7498 | – | 893.3
20000 kPa, x2 = 0.8528 | – | 751.2
20000 kPa, x2 = 0.853 | 824.1 | –
20000 kPa, x2 = 0.9348 | 838.9 | –
20000 kPa, x2 = 0.9771 | 842 | –
20000 kPa, x2 = 0.9877 | 841.4 | –
30000 kPa, x2 = 0 | 754.8 | 1389.6
30000 kPa, x2 = 0.2032 | – | 1322.9
30000 kPa, x2 = 0.205 | 763.6 | –
30000 kPa, x2 = 0.3989 | – | 1238.8
30000 kPa, x2 = 0.4 | 776.4 | –
30000 kPa, x2 = 0.6007 | – | 1112.9
30000 kPa, x2 = 0.6008 | 797.2 | –
30000 kPa, x2 = 0.7497 | 822.5 | –
30000 kPa, x2 = 0.7498 | – | 971.4
30000 kPa, x2 = 0.8528 | – | 843.1
30000 kPa, x2 = 0.853 | 847.6 | –
30000 kPa, x2 = 0.9348 | 877.6 | –
30000 kPa, x2 = 0.9771 | 897.3 | –
30000 kPa, x2 = 0.9877 | 902.7 | –
40000 kPa, x2 = 0 | 760.8 | 1436.8
40000 kPa, x2 = 0.2032 | – | 1373.3
40000 kPa, x2 = 0.205 | 770.3 | –
40000 kPa, x2 = 0.3989 | – | 1291
40000 kPa, x2 = 0.4 | 784.2 | –
40000 kPa, x2 = 0.6007 | – | 1170.9
40000 kPa, x2 = 0.6008 | 807.2 | –
40000 kPa, x2 = 0.7497 | 836.1 | –
40000 kPa, x2 = 0.7498 | – | 1037.1
40000 kPa, x2 = 0.8528 | – | 917.2
40000 kPa, x2 = 0.853 | 866.6 | –
40000 kPa, x2 = 0.9348 | 906.5 | –
40000 kPa, x2 = 0.9771 | 935.9 | –
40000 kPa, x2 = 0.9877 | 944.5 | –
50000 kPa, x2 = 0 | 766.3 | 1481.5
50000 kPa, x2 = 0.2032 | – | 1419.2
50000 kPa, x2 = 0.205 | 776.4 | –
50000 kPa, x2 = 0.3989 | – | 1339.9
50000 kPa, x2 = 0.4 | 791.2 | –
50000 kPa, x2 = 0.6007 | – | 1224.3
50000 kPa, x2 = 0.6008 | 816.1 | –
50000 kPa, x2 = 0.7497 | 848 | –
50000 kPa, x2 = 0.7498 | – | 1095.2
50000 kPa, x2 = 0.8528 | – | 979.7
50000 kPa, x2 = 0.853 | 882.5 | –
50000 kPa, x2 = 0.9348 | 929.7 | –
50000 kPa, x2 = 0.9771 | 965.6 | –
50000 kPa, x2 = 0.9877 | 976.7 | –
60000 kPa, x2 = 0 | 771.5 | 1524.2
60000 kPa, x2 = 0.2032 | – | 1462.4
60000 kPa, x2 = 0.205 | 782.1 | –
60000 kPa, x2 = 0.3989 | – | 1385.2
60000 kPa, x2 = 0.4 | 797.6 | –
60000 kPa, x2 = 0.6007 | – | 1272.9
60000 kPa, x2 = 0.6008 | 824.2 | –
60000 kPa, x2 = 0.7497 | 858.7 | –
60000 kPa, x2 = 0.7498 | – | 1147
60000 kPa, x2 = 0.8528 | – | 1034.9
60000 kPa, x2 = 0.853 | 896.4 | –
60000 kPa, x2 = 0.9348 | 949.4 | –
60000 kPa, x2 = 0.9771 | 990.3 | –
60000 kPa, x2 = 0.9877 | 1003.1 | –
70000 kPa, x2 = 0 | 776.4 | 1564.6
70000 kPa, x2 = 0.2032 | – | 1503.9
70000 kPa, x2 = 0.205 | 787.4 | –
70000 kPa, x2 = 0.3989 | – | 1427.5
70000 kPa, x2 = 0.4 | 803.6 | –
70000 kPa, x2 = 0.6007 | – | 1317.9
70000 kPa, x2 = 0.6008 | 831.6 | –
70000 kPa, x2 = 0.7497 | 868.2 | –
70000 kPa, x2 = 0.7498 | – | 1195.2
70000 kPa, x2 = 0.8528 | – | 1084.8
70000 kPa, x2 = 0.853 | 908.7 | –
70000 kPa, x2 = 0.9348 | 966.6 | –
70000 kPa, x2 = 0.9771 | 1011.6 | –
70000 kPa, x2 = 0.9877 | 1025.8 | –
